Measured values published in patent US20260325605A1, “INHIBITORS” (Zealand Pharma A/S, priority 2022, published 2026).

Key:
Kv1.6 = target: T1, Kv1.6 (Homo sapiens, UniProt P17658); test: Patch clamp assay (QPatch), Kv1.6; type: cell-based
T1 construct: expressed in transfected cells

[1] = Example 6: Pharmacokinetic characterisation after s.c. administration; type: in vivo, rat (Sprague Dawley or Wistar); details: rat, 70 nmol/kg
Description: Sprague Dawley or Wistar rats (males with a body weight of approximately 250-350 g) were given a single subcutaneous (s.c.) injection of each peptide to be tested.
Following s.c. administration of the selected peptides (dose 70 nmol/kg, dosing volume either 2 or 5 mL/kg), blood samples were drawn at 15 min, 30 min, 45 min, 60 min, 90 min, 2 h, 3 h, 4 h post-dose. At each sampling time point, samples from the rats were drawn by sublingual bleeding or by tail cut. After last sampling the rats were sacrificed by O2/CO2 anaesthesia. The dosing vehicle was 10 mM phosphate, 0.8% NaCl, 0.05% Polysorbate 20 (pH 6.0).
Plasma samples were analyzed after solid phase extraction (SPE) by liquid chromatography mass spectrometry (LC-MS/MS). Mean plasma concentrations were used for calculation of the pharmacokinetic parameters using the non-compartmental approach in Phoenix WinNonlin 6.4 or a later version. […]. AUCinf is the area under the plasma concentration−time curve extrapolated to infinity (AUCinf=AUClast+Clast/λz, where Clast is the last observed plasma concentration). Cmax is the maximum observed concentration, occurring at Tmax.

Kv1.1 = target: T2, Kv1.1 (Homo sapiens, UniProt Q09470); test: Patch clamp assay (QPatch), Kv1.1; type: cell-based
T2 construct: expressed in transfected cells
Description: (§1) Selectivity of Kv1.3 inhibitor peptides for Kv1.3 over other potassium ion channels (Kv1.1, Kv1.2 and Kv1.6) was determined using patch clamp assay.
(§2) Chinese Hamster Ovary (CHO) cell lines stably expressing exogenous human α-subunits of each potassium ion channel were grown and passaged under standard culture conditions.
(§3) The automated, chip-based planar patch clamp device QPatch® was used to quantitate the ionic currents. All recordings were made in the conventional whole-cell configuration after establishment of gigaohm seals. […] During experiments 0.1% (v/v) BSA was included as a vehicle in all external recording solutions. Currents were elicited from a holding potential of −80 mV using a voltage protocol, which shifted the voltage to 30 mV for 500 ms every 15 s.
(§4) Concentration-response relationships were established by cumulatively applying seven escalating concentrations of test sample to an individual cell with a recording period of 2 min per compound application.
(§5) The efficacy was determined as the mean charge for the last three sweeps at the end of each concentration application period from the cursor positions. The percent inhibition for each test dose application period was calculated as the reduction in mean cursor value (charge) relative to the cursor value measured at the end of the vehicle period and used to calculate the IC50 from the concentration response curve.

Kv1.3 = target: T3, Kv1.3 (Homo sapiens, UniProt P22001); test: Patch clamp assay (QPatch), Kv1.3; type: cell-based; details: CHO cells stably expressing human Kv1.3, read-out: Potency IC50, Kv1.3
T3 construct: expressed in transfected cells
Description: as §1, §2, §3, §4, §5

[2] = tested on: collagen-induced arthritis in rats; test: Example 9: Rat collagen-induced arthritis (CIA) model, clinical score; type: in vivo, rat (Lewis); set-up: key: qualitative severity score summed over four paws, maximum 16
Description: Vehicle: 10 mM phosphate pH 6+0.8% NaCl+0.05% polysorbate 20
Peptide: Peptide 100 is formulated in vehicle at 50 nmol/mL. Dosing volume was individually adjusted according to the body weight of each animal to reach the target dose of peptide 100 of 100 nmol/kg.
The animal care facility employed is accredited by AAALAC. Female Lewis rats, weighing 180±20 g at delivery were used for this study. Following arrival in the animal facility, all animals were subjected to a general health evaluation. An acclimation period of 1 day was allowed before the beginning of the study.
Animals were grouped into 9 each based on their body weight. All animals were challenged with porcine type-II collagen with incomplete Freund's adjuvant on day 1 (0.2 mg/0.2 mL/rat, subcutaneously at the base of the tail) and boosted on day 7 (0.1 mg/0.1 mL/rat, s.c.). In the study dexamethasone given daily PO at 0.3 mg/kg was used as a positive control.
From day 12 to day 30, peptide 100 was administered as a single bolus either daily (QD), every third day (Q3D) or every fifth day (Q5D) subcutaneously into the flank. […] The peptide and vehicle were dosed at a volume of 2 mL/kg. Dosing volume was individually adjusted according to the body weight of each animal to reach the target dose of formulation 1 of 100 nmol/kg.
Disease was assessed by using a qualitative severity score system (see below, maximum score of 16) on days 1, 7, 10, 12 (before dosing), 13, 14, 15, 16, 17, 18, 19, 20, 21, 22, 24, 26 and 28 before peptide treatment and one hour after treatment on day 30.
The disease severity score is based on the following:
The ability of Kv1.3 inhibitor treatment to reduce chronic inflammation in arthritis was investigated by comparing the response in rats (n=9 animals/group) treated with vehicle to that of rats treated with peptide 100 daily, every third day or every fifth day. The severity of arthritis was determined by summation of the disease score on all four paws from day 12 to day 30 for each animal.

T2 sequence (Q09470 whole entry): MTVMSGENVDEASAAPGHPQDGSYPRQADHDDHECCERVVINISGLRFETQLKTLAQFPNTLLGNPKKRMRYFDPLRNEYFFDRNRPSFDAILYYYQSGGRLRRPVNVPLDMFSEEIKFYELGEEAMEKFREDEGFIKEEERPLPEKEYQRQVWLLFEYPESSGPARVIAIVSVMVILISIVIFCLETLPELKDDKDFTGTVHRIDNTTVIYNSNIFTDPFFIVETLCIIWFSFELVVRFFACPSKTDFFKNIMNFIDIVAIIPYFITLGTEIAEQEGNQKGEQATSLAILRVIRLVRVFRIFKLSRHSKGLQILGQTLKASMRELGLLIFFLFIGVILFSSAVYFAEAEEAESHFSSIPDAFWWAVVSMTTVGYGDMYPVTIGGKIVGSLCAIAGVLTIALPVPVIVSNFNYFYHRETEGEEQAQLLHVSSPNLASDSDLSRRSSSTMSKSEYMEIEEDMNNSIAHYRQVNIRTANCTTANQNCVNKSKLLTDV
T1 sequence (P17658 whole entry): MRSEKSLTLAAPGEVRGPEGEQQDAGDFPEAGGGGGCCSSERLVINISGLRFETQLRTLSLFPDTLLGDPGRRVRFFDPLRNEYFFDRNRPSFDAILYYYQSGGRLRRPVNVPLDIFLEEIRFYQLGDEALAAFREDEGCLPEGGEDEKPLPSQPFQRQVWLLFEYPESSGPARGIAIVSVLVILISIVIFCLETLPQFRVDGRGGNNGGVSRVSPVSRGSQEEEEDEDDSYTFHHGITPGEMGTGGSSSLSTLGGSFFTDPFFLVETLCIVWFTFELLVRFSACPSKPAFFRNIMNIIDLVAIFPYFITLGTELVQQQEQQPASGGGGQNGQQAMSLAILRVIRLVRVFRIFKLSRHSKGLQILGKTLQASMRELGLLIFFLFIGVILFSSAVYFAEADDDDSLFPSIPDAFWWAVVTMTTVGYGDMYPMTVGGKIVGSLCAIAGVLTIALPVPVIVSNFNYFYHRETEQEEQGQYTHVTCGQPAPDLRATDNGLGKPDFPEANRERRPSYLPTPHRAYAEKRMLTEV
T3 sequence (P22001 whole entry): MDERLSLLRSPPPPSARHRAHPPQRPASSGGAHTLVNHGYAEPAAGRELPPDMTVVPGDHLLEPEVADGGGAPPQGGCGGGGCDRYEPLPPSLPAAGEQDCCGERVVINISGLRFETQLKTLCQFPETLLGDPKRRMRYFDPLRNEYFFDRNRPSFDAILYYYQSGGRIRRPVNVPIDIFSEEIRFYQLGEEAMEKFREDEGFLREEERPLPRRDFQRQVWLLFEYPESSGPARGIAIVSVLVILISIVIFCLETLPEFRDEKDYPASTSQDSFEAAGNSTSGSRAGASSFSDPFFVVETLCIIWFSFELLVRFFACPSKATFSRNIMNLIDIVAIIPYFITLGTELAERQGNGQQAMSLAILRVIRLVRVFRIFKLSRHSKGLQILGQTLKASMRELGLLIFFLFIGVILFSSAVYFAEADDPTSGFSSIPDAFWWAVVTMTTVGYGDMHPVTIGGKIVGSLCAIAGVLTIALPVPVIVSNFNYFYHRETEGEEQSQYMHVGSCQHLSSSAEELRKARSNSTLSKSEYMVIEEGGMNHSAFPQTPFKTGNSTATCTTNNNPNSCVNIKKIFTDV

Question: With “H-P[Nle]E[Nle]RC(1)SASVEC(2)KQKC(3)LAAIGSIFGKC(1)[Nle]NKKC(2)KC(3)YPR-OH [Peptide 100]” as the substance, how does the IC50 (Kv1.6; QPatch, CHO cells stably expressing human Kv1.6, read-out: Potency IC50, Kv1.6) read?
Answer: > 3 µM

Question: And the “Selectivity Kv1.6/Kv1.3” value (Kv1.6; ratio of IC50 Kv1.6/Kv1.3)?
Answer: >9100

Question: And the AUCINF ([1]; plasma)?
Answer: 112.0 nM·h

Question: What about the Cmax ([1]; plasma) of the same substance?
Answer: 0.0526 µM

Question: And the T1/2 ([1]; plasma terminal elimination half-life)?
Answer: 1.04 h

Question: And the IC50 (Kv1.1; QPatch, CHO cells stably expressing human Kv1.1, read-out: Potency IC50, Kv1.1)?
Answer: > 3 µM

Question: What about the “Selectivity Kv1.1/Kv1.3” value (Kv1.1; ratio of IC50 Kv1.1/Kv1.3) of the same substance?
Answer: >9100

Question: What about the IC50 (Kv1.3) of the same substance?
Answer: 0.00033 µM

Question: And the Mean clinical score ([2]; 100 nmol/kg s.c. daily, every third day or every fifth day, day 12 to day 30, in words)?
Answer: reduction of the mean clinical score with all dosing regimens

Question: What about the Mean clinical score ([2]; Q3D SC 100 nmol/kg, day 12) of the same substance?
Answer: 0.8

Question: And the Mean clinical score ([2]; Q3D SC 100 nmol/kg, day 13)?
Answer: 2.0

Question: And the Mean clinical score ([2]; Q3D SC 100 nmol/kg, day 14)?
Answer: 4.1

Question: What about the Mean clinical score ([2]; Q3D SC 100 nmol/kg, day 15) of the same substance?
Answer: 4.4

Question: What about the Mean clinical score ([2]; Q3D SC 100 nmol/kg, day 16) of the same substance?
Answer: 5.0

Question: What about the Mean clinical score ([2]; Q3D SC 100 nmol/kg, day 17) of the same substance?
Answer: 5.6

Question: And the Mean clinical score ([2]; Q3D SC 100 nmol/kg, day 18)?
Answer: 6.4

Question: And the Mean clinical score ([2]; Q3D SC 100 nmol/kg, day 19)?
Answer: 6.6

Question: And the Mean clinical score ([2]; Q3D SC 100 nmol/kg, day 20)?
Answer: 7.2

Question: What about the Mean clinical score ([2]; Q3D SC 100 nmol/kg, day 21) of the same substance?
Answer: 7.3

Question: And the Mean clinical score ([2]; Q3D SC 100 nmol/kg, day 22)?
Answer: 8.0

Question: And the Mean clinical score ([2]; Q3D SC 100 nmol/kg, day 24)?
Answer: 8.2

Question: What about the Mean clinical score ([2]; Q3D SC 100 nmol/kg, day 26) of the same substance?
Answer: 8.4

Question: And the Mean clinical score ([2]; Q3D SC 100 nmol/kg, day 28)?
Answer: 9.0

Question: What about the Mean clinical score ([2]; Q3D SC 100 nmol/kg, day 30) of the same substance?
Answer: 10.0

Question: And the Mean clinical score ([2]; Q5D SC 100 nmol/kg, day 12)?
Answer: 2.4

Question: What about the Mean clinical score ([2]; Q5D SC 100 nmol/kg, day 13) of the same substance?
Answer: 3.3

Question: And the Mean clinical score ([2]; Q5D SC 100 nmol/kg, day 14)?
Answer: 4.6

Question: And the Mean clinical score ([2]; Q5D SC 100 nmol/kg, day 15)?
Answer: 4.9

Question: What about the Mean clinical score ([2]; Q5D SC 100 nmol/kg, day 16) of the same substance?
Answer: 5.4

Question: What about the Mean clinical score ([2]; Q5D SC 100 nmol/kg, day 17) of the same substance?
Answer: 5.8

Question: What about the Mean clinical score ([2]; Q5D SC 100 nmol/kg, day 18) of the same substance?
Answer: 6.2

Question: And the Mean clinical score ([2]; Q5D SC 100 nmol/kg, day 19)?
Answer: 6.4

Question: What about the Mean clinical score ([2]; Q5D SC 100 nmol/kg, day 20) of the same substance?
Answer: 6.9

Question: What about the Mean clinical score ([2]; Q5D SC 100 nmol/kg, day 21) of the same substance?
Answer: 7.1

Question: And the Mean clinical score ([2]; Q5D SC 100 nmol/kg, day 22)?
Answer: 7.6

Question: What about the Mean clinical score ([2]; Q5D SC 100 nmol/kg, day 24) of the same substance?
Answer: 8.2

Question: What about the Mean clinical score ([2]; Q5D SC 100 nmol/kg, day 26) of the same substance?
Answer: 8.5

Question: What about the Mean clinical score ([2]; Q5D SC 100 nmol/kg, day 28) of the same substance?
Answer: 9.0

Question: And the Mean clinical score ([2]; Q5D SC 100 nmol/kg, day 30)?
Answer: 9.4

Question: And the Mean clinical score ([2]; QD SC 100 nmol/kg, day 12)?
Answer: 0.8

Question: And the Mean clinical score ([2]; QD SC 100 nmol/kg, day 13)?
Answer: 2.1

Question: What about the Mean clinical score ([2]; QD SC 100 nmol/kg, day 14) of the same substance?
Answer: 4.3

Question: What about the Mean clinical score ([2]; QD SC 100 nmol/kg, day 15) of the same substance?
Answer: 4.7

Question: What about the Mean clinical score ([2]; QD SC 100 nmol/kg, day 16) of the same substance?
Answer: 5.8

Question: What about the Mean clinical score ([2]; QD SC 100 nmol/kg, day 17) of the same substance?
Answer: 6.0

Question: And the Mean clinical score ([2]; QD SC 100 nmol/kg, day 18)?
Answer: 6.6

Question: What about the Mean clinical score ([2]; QD SC 100 nmol/kg, day 19) of the same substance?
Answer: 6.7

Question: What about the Mean clinical score ([2]; QD SC 100 nmol/kg, day 20) of the same substance?
Answer: 7.0

Question: And the Mean clinical score ([2]; QD SC 100 nmol/kg, day 21)?
Answer: 7.1

Question: What about the Mean clinical score ([2]; QD SC 100 nmol/kg, day 22) of the same substance?
Answer: 7.1

Question: And the Mean clinical score ([2]; QD SC 100 nmol/kg, day 24)?
Answer: 6.9

Question: And the Mean clinical score ([2]; QD SC 100 nmol/kg, day 26)?
Answer: 7.0

Question: What about the Mean clinical score ([2]; QD SC 100 nmol/kg, day 28) of the same substance?
Answer: 7.8

Question: What about the Mean clinical score ([2]; QD SC 100 nmol/kg, day 30) of the same substance?
Answer: 8.4
